Data from US7772246B2 (Pfizer Inc., priority 2007, dated 2010).
Read-outs that look alike come from different tables or passages of the source.

What was measured:
b-Raf [1] = biological target: T1, b-Raf (Homo sapiens, UniProt P15056); test: Raf biochemical assay (in vitro kinase assay, 32-P transfer from ATP to Mek1); conditions: full-length wild type b-Raf, Mek1 substrate; for Ki: 25 μM ATP; for inhibition at 1 µM: @ 1 μM compound, read-out: b-Raf % inhib @ 1 μM
T1 construct: Full-length wild type b-Raf is expressed in recombinant form and purified from bacterial or insect cells; made in house; host or cells: bacterial or insect cells
Description: Compounds of the present invention were evaluated for potency against b-Raf using an in vitro kinase assay. Raf kinase activity is measured in vitro by determining transfer of radiolabeled 32-P phosphate from ATP to the specific Raf substrate Mek1. Full-length wild type b-Raf is expressed in recombinant form and purified from bacterial or insect cells. Recombinant Mek1 is purified from E. coli bacterial cells. In one assay format (designated G1), the full-length wild type Mek1 is used as the b-Raf substrate. In a second assay format (designated G2), the full-length K97R Mek1 mutant is used as the b-Raf substrate.
In vitro kinase assays are performed in solution containing the following; 50 mM Hepes (pH 7.4), 5 nM b-Raf, 0.8 μM Mek1, 10 mM MgCl2, 25 μM ATP, 0.002% (v/v) Tween-20, 5 μg/mL leupeptin, 1.2 mM DTT, 2% (v/v) DMSO, 0.2-1.0 μCi [γ-^32P]ATP per well.
The assays are performed in wells of a 96 well polypropylene round bottom plate, each well containing 43.5 μL assay mix and 1.5 μL inhibitor compound or DMSO vehicle. 15 μL of b-Raf mix is added and the plate is shaken on a plate shaker and preincubated for 10 minutes at ambient temperature. The reaction is started by addition of 15 μL ATP mix and shaking. The reaction is terminated after 40 minutes by addition of 25 μL 0.5 M EDTA (pH 7.4).
60 μL of the stopped reaction is transferred to a well of a 96-well nylon 66 Biodyne A membrane Silent Screen filter plate (Nalge/Nunc: 256081). The wells are filtered and washed five times with 0.85% phosphoric acid. The filter is placed in a tray with about 50 mL 0.85% phosphoric acid and gently rotated for 10 minutes on an orbital shaker. The procedure is repeated once with fresh 0.85% phosphoric acid. Five samples of 0.5 μL of ATP mix are also spotted onto filter paper for calculation of specific activity. The filters are air dried for one hour and sandwiched between cellophane wrap on an Amersham Biosciences Storage Phosphor Screen and developed at least over night. The image is read using a Molecular Dynamics Storm 840 phosphoimager. Volumes of spots are calculated using ImageQuant5.1.
Raf kinase activity is calculated from the specific activity of [32-P] ATP, 32-P incorporation into Mek1, and the concentration of b-Raf.

b-Raf [2] = biological target: T2, b-Raf (Homo sapiens, UniProt P15056, V600E); test: Raf cellular assay (phospho-Mek1/2 ELISA in A2058 cells); type: cell-based; conditions: human melanoma A2058 cells (b-Raf mutation), Mek1/2 Ser217/221 phosphorylation, 1 hour incubation, read-out: pMEK IC50
T2 construct: endogenous in cells; host or cells: A2058 human melanoma cells
In short: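 A2058 melanoma cells (B-Raf mutant), seeded overnight in 10% FBS DMEM, were exposed to compounds (11-point 1:3 series, duplicate) for 1 h at 37 °C. Lysates were captured on anti-Mek1-coated plates and Mek1/2 Ser217/221 phosphorylation was read by anti-phospho-Mek1/2 ELISA, HRP/TMB, 450 nm.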

T1 sequence (P15056 whole entry): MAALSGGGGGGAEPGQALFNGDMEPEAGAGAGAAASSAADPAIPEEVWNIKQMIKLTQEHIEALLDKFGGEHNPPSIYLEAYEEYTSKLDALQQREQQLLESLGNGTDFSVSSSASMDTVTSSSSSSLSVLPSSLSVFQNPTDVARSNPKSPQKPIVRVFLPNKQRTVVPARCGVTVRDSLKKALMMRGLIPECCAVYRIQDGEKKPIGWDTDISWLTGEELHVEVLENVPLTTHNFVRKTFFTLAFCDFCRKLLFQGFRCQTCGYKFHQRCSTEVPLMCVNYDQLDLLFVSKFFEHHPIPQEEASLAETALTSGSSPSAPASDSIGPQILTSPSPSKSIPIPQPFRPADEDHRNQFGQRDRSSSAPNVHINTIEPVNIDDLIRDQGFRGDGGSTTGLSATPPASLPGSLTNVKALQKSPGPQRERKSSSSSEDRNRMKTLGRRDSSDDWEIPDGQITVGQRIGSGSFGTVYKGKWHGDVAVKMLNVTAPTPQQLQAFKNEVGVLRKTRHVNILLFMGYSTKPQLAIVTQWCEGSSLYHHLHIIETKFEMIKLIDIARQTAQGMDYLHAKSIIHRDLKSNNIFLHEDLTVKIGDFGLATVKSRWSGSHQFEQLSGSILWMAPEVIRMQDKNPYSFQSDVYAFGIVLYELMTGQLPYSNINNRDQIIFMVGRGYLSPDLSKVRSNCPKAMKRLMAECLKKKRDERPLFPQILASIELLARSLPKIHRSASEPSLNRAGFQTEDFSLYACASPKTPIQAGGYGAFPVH
T2 sequence (P15056 whole entry V600E): as the sequence (P15056 whole entry) above, with V600E counted along it

Compound | Ki (b-Raf [1]) [nM] | IC50 (b-Raf [2]; Table 2) [nM] | inhibition at 1 µM (b-Raf [1]) [%] | IC50 (b-Raf [2]; Table 3) [nM]
CC(C)n1cc(-c2ccnc(NC[C@H](C)O)n2)c(-c2cnc3c(c2)CCN3)n1 [Example B-12, (2S)-1-(4-(3-(2,3-dihydro-1H-pyrrolo[2,3-b]pyridin-5-yl)-1-isopropyl-1H-pyrazol-4-yl)pyrimidin-2-ylamino)propan-2-ol] | 1.6 | 450 |  | 
Cc1n[nH]c2ncc(-c3nn(C(C)C)cc3-c3ccnc(NC[C@H](C)O)n3)cc12 [Example D-2, (2S)-1-(4-(1-isopropyl-3-(3-methyl-1H-pyrazolo[3,4-b]pyridin-5-yl)-1H-pyrazol-4-yl)pyrimidin-2-ylamino)propan-2-ol] | 0.3 | 109 |  | 
CCn1cc(CNc2nccc(-c3cn(C(C)C)nc3-c3cnc4[nH]ccc4c3)n2)cn1 [Example D-10, N-[(1-ethyl-1H-pyrazol-4-yl)methyl]-4-[1-isopropyl-3-(1H-pyrrolo[2,3-b]pyridin-5-yl)-1H-pyrazol-4-yl]pyrimidin-2-amine] | 2 | 923 | 100 | 
Cc1nc2ncc(-c3nn(C(C)C)cc3-c3ccnc(NC[C@H](C)O)n3)cn2c1C [Example B-9, (2S)-1-(4-(3-(2,3-dimethylimidazo[1,2-a]pyrimidin-6-yl)-1-isopropyl-1H-pyrazol-4-yl)pyrimidin-2-ylamino)propan-2-ol] | 2 | 9260 |  | 
C[C@H](O)CNc1nccc(-c2cn(CC(F)F)nc2-c2cnc3[nH]cc(Cl)c3c2)n1 [Example E-2, (2S)-1-(4-(3-(3-chloro-1H-pyrrolo[2,3-b]pyridin-5-yl)-1-(2,2-difluoroethyl)-1H-pyrazol-4-yl)pyrimidin-2-ylamino)propan-2-ol] | < 0.1 | 15 | 100 | 
CC(C)n1cc(-c2ccnc(NC[C@H](C)O)n2)c(-c2cnc3[nH]cc(Cl)c3c2)n1 [Example B-11, (2S)-1-(4-(3-(3-chloro-1H-pyrrolo[2,3-b]pyridin-5-yl)-1-isopropyl-1H-pyrazol-4-yl)pyrimidin-2-ylamino)propan-2-ol] | < 0.1 | 7 |  | 
Cc1[nH]c2ncc(-c3nn(C(C)C)cc3-c3ccnc(NC[C@H](C)O)n3)cc2c1C [Example B-6, (2S)-1-(4-(3-(2,3-dimethyl-1H-pyrrolo[2,3-b]pyridin-5-yl)-1-isopropyl-1H-pyrazol-4-yl)pyrimidin-2-ylamino)propan-2-ol] | 1.5 | 44 |  | 
CC(C)n1cc(-c2ccnc(NCc3ccccn3)n2)c(-c2cnc3[nH]ccc3c2)n1 [Example D-3, 4-(1-isopropyl-3-(1H-pyrrolo[2,3-b]pyridin-5-yl)-1H-pyrazol-4-yl)-N-(pyridin-2-ylmethyl)pyrimidin-2-amine] | 8.3 | 1810 | 93 | 
CC(C)n1cc(-c2ccnc(NCCn3ccccc3=O)n2)c(-c2cnc3[nH]ccc3c2)n1 [Example D-8, 1-[2-({4-[1-isopropyl-3-(1H-pyrrolo[2,3-b]pyridin-5-yl)-1H-pyrazol-4-yl]pyrimidin-2-yl}amino)ethyl]pyridin-2(1H)-one] | 0.7 | 542 | 100 | 
CC(C)n1cc(-c2ccnc(NC[C@H](C)O)n2)c(-c2cnc3ccn(C)c3n2)n1 [Example B-10] | 5 | 5960 |  | 
CC(C)n1cc(-c2ccnc(NC[C@H](C)O)n2)c(-c2cnc3[nH]ccc3c2)n1 [Example B-1, (2S)-1-(4-(1-isopropyl-3-(1H-pyrrolo[2,3-b]pyridin-5-yl)-1H-pyrazol-4-yl)pyrimidin-2-ylamino)propan-2-ol] | 0.5 | 154 | 102 | 
CNc1ncc(-c2nn(C(C)C)cc2-c2ccnc(NC[C@H](C)O)n2)cc1C [Example B-4, (2S)-1-(4-(1-isopropyl-3-(5-methyl-6-(methylamino)pyridin-3-yl)-1H-pyrazol-4-yl)pyrimidin-2-ylamino)propan-2-ol] | 272 | 3370 | 74 | 
CC(C)n1cc(-c2ccnc(NCCc3cn[nH]c3)n2)c(-c2cnc3[nH]ccc3c2)n1 [Example D-7, 4-[1-isopropyl-3-(1H-pyrrolo[2,3-b]pyridin-5-yl)-1H-pyrazol-4-yl]-N-[2-(1H-pyrazol-4-yl)ethyl]pyrimidin-2-amine] | 0.5 | 386 | 99 | 
Cc1nc(CNc2nccc(-c3cn(C(C)C)nc3-c3cnc4[nH]ccc4c3)n2)c(C)o1 [Example D-11, N-[(2,5-dimethyl-1,3-oxazol-4-yl)methyl]-4-[1-isopropyl-3-(1H-pyrrolo[2,3-b]pyridin-5-yl)-1H-pyrazol-4-yl]pyrimidin-2-amine] | 0.8 | 1320 | 100 | 
C[C@H](O)CNc1nccc(-c2cn(CC3(C)COC3)nc2-c2cnc3[nH]ccc3c2)n1 [Example B-15, (2S)-1-(4-(1-((3-methyloxetan-3-yl)methyl)-3-(1H-pyrrolo[2,3-b]pyridin-5-yl)-1H-pyrazol-4-yl)pyrimidin-2-ylamino)propan-2-ol] | 6.2 | 3250 |  | 
Cc1cc2cc(-c3nn(C(C)C)cc3-c3ccnc(NC[C@H](C)O)n3)cnc2[nH]1 [Example B-7, (2S)-1-(4-(1-isopropyl-3-(2-methyl-1H-pyrrolo[2,3-b]pyridin-5-yl)-1H-pyrazol-4-yl)pyrimidin-2-ylamino)propan-2-ol] | 10.3 | 4010 |  | 
CC(C)n1cc(-c2ccnc(NCCO)n2)c(-c2cnc3[nH]ccc3c2)n1 [Example D-6, 2-({4-[1-isopropyl-3-(1H-pyrrolo[2,3-b]pyridin-5-yl)-1H-pyrazol-4-yl]pyrimidin-2-yl}amino)ethanol] | 1.36 | 369 | 101 | 
C[C@H](O)CNc1nccc(-c2cn(CC#N)nc2-c2cnc3[nH]ccc3c2)n1 [Example C-1, [4-[2-((S)-2-Hydroxy-propylamino)-pyrimidin-4-yl]-3-(1H-pyrrolo[2,3-b]pyridin-5-yl)-pyrazol-1-yl]-acetonitrile] | 3.9 | 483 |  | 
Cc1c[nH]c2ncc(-c3nn(C(C)C)cc3-c3ccnc(NC[C@H](C)O)n3)cc12 [Example B-5, (2S)-1-(4-(1-isopropyl-3-(3-methyl-1H-pyrrolo[2,3-b]pyridin-5-yl)-1H-pyrazol-4-yl)pyrimidin-2-ylamino)propan-2-ol] | 0.2 | 7 |  | 
C[C@H](O)CNc1nccc(-c2cn(CC(F)F)nc2-c2cnc3[nH]ccc3c2)n1 [Example B-14, (2S)-1-(4-(1-(2,2-difluoroethyl)-3-(1H-pyrrolo[2,3-b]pyridin-5-yl)-1H-pyrazol-4-yl)pyrimidin-2-ylamino)propan-2-ol] | 0.7 | 510 | 100 | 
C[C@H](CO)n1cc(-c2ccnc(N)n2)c(-c2cnc3[nH]cc(Cl)c3c2)n1 [Example B-55, (2R)-2-[4-(2-aminopyrimidin-4-yl)-3-(3-chloro-1H-pyrrolo[2,3-b]pyridin-5-yl)-1H-pyrazol-1-yl]propan-1-ol] |  |  |  | 63.6
Cc1n[nH]c2ncc(-c3nn(CC(F)F)cc3-c3ccnc(NCC(F)F)n3)cc12 [Example G-3, N-(2,2-difluoroethyl)-4-[1-(2,2-difluoroethyl)-3-(3-methyl-1H-pyrazolo[3,4-b]pyridin-5-yl)-1H-pyrazol-4-yl]pyrimidin-2-amine] |  |  |  | 22.9
N#CCCNc1nccc(-c2cn([C@@H]3CCOC3)nc2-c2cnc3[nH]ccc3c2)n1 [Example B-75, 3-[(4-{3-(1H-pyrrolo[2,3-b]pyridin-5-yl)-1-[(3R)-tetrahydrofuran-3-yl]-1H-pyrazol-4-yl}pyrimidin-2-yl)amino]propanenitrile] |  |  |  | 23.8
Cc1cc(-c2nn(C(C)(C)CO)cc2-c2ccnc(NCCC#N)n2)cnc1N [Example B-47, 3-({4-[3-(6-amino-5-methylpyridin-3-yl)-1-(2-hydroxy-1,1-dimethylethyl)-1H-pyrazol-4-yl]pyrimidin-2-yl}amino)-propanenitrile] |  |  |  | 86.2
